Measured values published in paper PMC5497784 (Cell metabolism, 2017).

Molecular target: IRE1α (Homo sapiens, UniProt O75460)
Assay: fluorescent XBP1 mini-substrate RNase assay with recombinant IRE1α*
Assay type: biochemical

IRE1α, sequence (O75460 469-977): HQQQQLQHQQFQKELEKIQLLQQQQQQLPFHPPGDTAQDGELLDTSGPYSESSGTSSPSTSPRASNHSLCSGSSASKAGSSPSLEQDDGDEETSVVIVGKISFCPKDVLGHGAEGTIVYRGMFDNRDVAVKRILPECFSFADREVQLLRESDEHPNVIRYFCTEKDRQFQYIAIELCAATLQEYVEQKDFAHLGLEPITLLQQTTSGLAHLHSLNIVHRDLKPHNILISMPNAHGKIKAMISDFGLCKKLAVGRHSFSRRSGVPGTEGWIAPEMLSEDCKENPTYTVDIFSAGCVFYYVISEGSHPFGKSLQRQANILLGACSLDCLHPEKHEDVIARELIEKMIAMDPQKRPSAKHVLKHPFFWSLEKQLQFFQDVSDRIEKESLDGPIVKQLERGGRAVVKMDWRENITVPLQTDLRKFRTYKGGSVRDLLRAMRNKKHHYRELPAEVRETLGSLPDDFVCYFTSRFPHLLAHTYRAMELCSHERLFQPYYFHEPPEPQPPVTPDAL

For CC(C)(C)c1nc(-c2ccc(NC(=O)Nc3cccc(C(F)(F)F)c3)c3ccccc23)c2c(N)nccn12 [KIRA6, 1-(4-(8-amino-3-tert-butylimidazo[1,5-a]pyrazin-1-yl)naphthalen-1-yl)-3-(3-(trifluoromethyl)phenyl)urea], the IC50 was 40.1 nM.
